We go through 33 compounds from patent publication US7829578B1, “Aromatic ketones and uses thereof” (Oregon Health & Science University, priority 2005, dated 2010).

What all share (assay type): cell-based
The test system of assay [1] is multi-drug resistant strains of Plasmodium falciparum (W2, Dd2, 7G8 and Tm93C1088). Put plainly: In vitro antimalarial activity against multi-drug resistant strains. The following applies: for IC50: Plasmodium falciparum; for IC50 values, stated in words: against multidrug resistant Plasmodium falciparum parasites. The procedure: (§1) Four different laboratory strains of P. falciparum were cultured in human erythrocytes by standard methods under a low oxygen atmosphere (5% O2, 5% CO2, 90% N2) in an environmental chamber. The culture medium was RPMI 1640, supplemented with 25 mM Hepes buffer, 25 mg/liter gentamicin sulfate, 45 mg/liter hypoxanthine, 10 mM glucose, 2 mM glutamine, and 0.5% Albumax II (complete medium). The parasites were maintained in fresh human erythrocytes suspended at a 2% hematocrit in complete medium at 37° C. Stock cultures were sub-passaged every 3 to 4 days by transfer of infected red cells to a flask containing complete medium and uninfected erythrocytes.
(§2) In vitro antimalarial activity of the test compounds was assessed by a fluorescence-based method described previously (Smilkstein et al., 2004, Antimicrobial Agents and Chemotherapy, Vol. 48, pgs. 1803-1806) (reference format?). The studies were set up in triplicate in 96 well plates with two-fold dilutions of each test compound across the plate in a total volume of 100 μl and at a final red blood cell concentration of 2% (v/v). Stock solutions of each drug were prepared by dissolving in DMSO at 10 mM. […] In every case, an additional determination was performed to ensure bracketing of the IC50 value by at least an order of magnitude.
(§3) Automated pipeting and dilution was carried out by a programmable Precision 2000 robotic station (Bio-Tek, Winooski, Vt.). An initial parasitemia of 0.2% was attained by addition of normal uninfected red cells to a stock culture of asynchronous parasite infected red cells (PRBC). The plates were incubated for 72 hrs at 37° C. in an atmosphere of 5% CO2, 5% O2, and 90% N2. After this period, the SyBrGreen I dye-detergent mixture (100 μl) was added and the plates were incubated at room temperature for an hour in the dark and then placed in a 96-well fluorescence plate reader (Gemini-EM, […]) for analysis with excitation and emission wavelength bands centered at 497 and 520 nm, respectively.

Assay [2] relates to drug susceptible (D6) strain of Plasmodium falciparum. Put plainly: In vitro antimalarial MSF (SyBrGreen I fluorescence) assay, D6 strain. The following applies: for improvement of antimalarial potency by the QZ group: compared to IC50 of the parent compound without the QZ side chain. How it is done: as §1, §2, §3
For assay [3], the system named is Plasmodium parasitized red blood cells. The assay is described as follows: Oxygen consumption (respiration) by parasitized red blood cells (FIG. 3). The following applies: compared with atovaquone at equimolar concentrations. An excerpt:
While not intending to be limited to any mechanism of action, it is contemplated that some of the presently described compounds may act through inhibiting parasite growth through inhibition of the enzyme cytochrome b.

The subject of assay [4] is multi-drug resistant (Dd2) strain of Plasmodium falciparum. The assay is described as follows: In vitro antimalarial MSF (SyBrGreen I fluorescence) assay, Dd2 strain. How it is done:
as §1, §2, §3

For assay [5], the system named is Murine splenic lymphocytes. The assay is described as follows: MSLCs-concanavalin A induced proliferation (blastogenesis) cytotoxicity assay, Alamar Blue fluorescence. The following applies: Table 3, 48-hr MSLCs-concanavalin A induced proliferation.
Assay [6] deals with Murine splenic lymphocytes. The description is as above. The following applies: Table 2, 24-hr MSLCs-concanavalin A induced proliferation. How it is done:
*Data are the average of at least 3 independent experiments, each performed in triplicate with the aid of a Precision 2000 robotic pipeting station. IC50 values were determined by the MSF assay. […] MSLCs=Murine splenic lymphocytes. Cytotoxicity was determined using a 24-hr MSLCs-concanavalin A induced proliferation assay using the Alamar Blue fluorescence method. IVTI=in vitro therapeutic index calculated from the ratio of IC50 values based on the cytotoxicity observed in the blastogenesis assay and the antimalarial potency against the D6 strain of P. falciparum. NT=not tested.
*Data are the average of at least 3 independent experiments, each performed in triplicate with the aid of a Precision 2000 robotic pipeting station. IC50 values were determined by the MSF assay (Smilkstein et al., AAC, 2004). MSLCs=Murine splenic lymphocytes. Cytotoxicity was determined using a 48-hr MSLCs-concanavalin A induced proliferation assay using the Alamar Blue fluorescence method. IVTI=in vitro therapeutic index calculated from the ratio of IC50 values of the cytotoxicity observed in the blastogenesis assay and antimalarial potency against the D6 strain of P. falciparum. NA=not applicable; ND=not determined.

Where [7] appears, read: Plasmodium falciparum, D6, read-out: IC50 against drug sensitive (D6) strain.
Setting [8] is: Table 3, MSF assay, read-out: D6 IC50.
[9] abbreviates: Table 2, 72 hrs, average of at least 3 experiments.
Where [10] appears, read: Table 2, MSF assay, 72 hrs, average of at least 3 experiments, read-out: D6 IC50.
Where [11] appears, read: Mus musculus, Splenic lymphocyte.
Where [12] appears, read: Plasmodium falciparum, D6, Table 3, MSF assay, read-out: D6 IC50.
The mark [13] stands for this setting: Plasmodium falciparum, DD2, Table 3.

Where two headings read alike, the source gives them in different places.

As to `O=c1c2ccc(Cl)cc2[nH]c2cc(OCCCCCC(F)(F)F)ccc12` [No. 21, 3-(6,6,6-trifluorohexyloxy)-6-chloroacridone], the half-inhibitory concentration (IC50) in assay [1] and in assay [2] (setting [7]) was 0.16 nM in each case. Further, the “improvement of antimalarial potency by the QZ group” value (“improvement of antimalarial potency” for short) in assay [2] was “more than 10,000 fold”.

Regarding `O=c1c2ccc(O)cc2oc2cc(OCCCCCC(F)(F)F)ccc12` [3-(6,6,6-trifluorohexyloxy)-6-hydroxyxanthone], the IC50 in assay [1] and in assay [2] (setting [7]) was roughly 700 nM throughout. Also, in assay [2], the “improvement of antimalarial potency” value was “more than 100 fold”.

Regarding `O=C1C=C(OCCCCC(F)(F)F)C(=O)c2ccccc21` [No. 35, 2-(5,5,5-trifluoropentyloxy)-1,4-naphthoquinone], the IC50 in assay [1] and in assay [2] (setting [7]) was roughly 133 nM each time. Also, the “improvement of antimalarial potency” value in assay [2] is given as “roughly 50 fold”.

Consider `COc1ccc2c(=O)c(CCCCCC(F)(F)F)c(C)[nH]c2c1` [No. 44, 2-methyl-3-(6,6,6-trifluorohexyl)-7-methoxy-4(1H)-quinolone], for which the “inhibition of oxygen consumption (respiration)” value in assay [3] (listed as 2-methyl-3-(6,6,6-trifluorohexyl)-7-methoxy-4-quinolone) was “equivalent to atovaquone at equimolar concentrations”. In assay [1], the “IC50 values, stated in words” value is reported as “low nanomolar range”.

With `CCOC(=O)c1c[nH]c2cc(OCCCCCC(F)(F)F)ccc2c1=O` [compound 46], the IC50 in assay [4] (Table 3) was 1.2 nM; in assay [5] it was greater than 25 µM; in assay [2] (setting [8]), 1.2 nM.

As for `CCOC(=O)c1c[nH]c2cc(OC)ccc2c1=O` [compound 41], the IC50 in assay [5] was greater than 25 µM; in assay [2] (setting [8]) it was 440 nM.

`CC1CCC2C(C)C(=O)OC3OC4(C)CCC1C32OO4` (stereo not shown) [compound 39]: the figures for the half-inhibitory concentration (IC50) in assay [4] (setting [9]), in assay [6] and in assay [2] (setting [10]) were 0.9 nM, greater than 25 µM and 0.65 nM, respectively.

Regarding `O=c1c2ccccc2[nH]c2ccc(OCCCCCC(F)(F)F)cc12` [compound 25], the IC50 in assay [4] (setting [9]) was 49 nM; in assay [6] it was greater than 25 µM; in assay [2] (setting [10]), 36 nM.

Consider `CCN(CC)CCCC(C)Nc1ccnc2cc(Cl)ccc12` (racemic) [compound 36], for which the IC50 in assay [4] (setting [9]) stood at 102 nM; in assay [6] it was 3.9 µM; in assay [2] (setting [10]) it was 7.8 nM.

`O=c1c2ccc(O)cc2oc2cc(OCCCCCC(F)(F)F)ccc12` [compound 11]: the IC50 in assay [4] (setting [9]) was 40 nM; in assay [6], greater than 25 µM; in assay [2] (setting [10]), 46 nM.

Take `COc1ccc2c(=O)c(C(=O)O)c[nH]c2c1` [compound 42]: the IC50 was greater than 25 µM in assay [5] (setting [11]) and greater than 2500 nM in assay [2] (setting [12]).

On to `O=c1c2ccc(Cl)cc2oc2cc(OCCCCC(F)(F)F)ccc12` [compound 19], for which the IC50 is 18000 nM in assay [4] (setting [9]), greater than 25 µM in assay [6] and 16000 nM in assay [2] (setting [10]).

As to `O=c1c2ccccc2[nH]c2cc(OCCCCCC(F)(F)F)ccc12` [compound 26], the half-inhibitory concentration (IC50) is 0.015 nM in assay [4] (setting [9]), greater than 25 µM in assay [6] and 0.43 nM in assay [2] (setting [10]).

In the case of `O=c1c2ccc(Cl)cc2[nH]c2cc(OCCCCCCCCCCC(F)(F)F)ccc12` [compound 30], the IC50 was 0.025 nM in assay [4] (setting [9]), greater than 25 µM in assay [6] and 0.023 nM in assay [2] (setting [10]).

For the compound `Nc1c2ccc(Cl)cc2nc2cc(OCCCCCC(F)(F)F)ccc12` [compound 32], the IC50 in assay [4] (setting [9]) was found to be 10 nM; in assay [6] it was 0.25 µM; in assay [2] (setting [10]) it was 2.9 nM.

For the compound `O=c1c2ccccc2[nH]c2cc(OCCCCC(F)(F)F)ccc12` [compound 20], the IC50 in assay [4] (setting [9]) was 0.3 nM; in assay [6] it was greater than 25 µM; in assay [2] (setting [10]) it was 0.5 nM.

On to `COc1ccc2[nH]c3cc(Cl)ccc3c(=O)c2c1` [compound 7], for which the IC50 was 65 nM in assay [4] (setting [9]), greater than 25 µM in assay [6] and 45 nM in assay [2] (setting [10]).

For the compound `O=C1C=C(OCCCCC(F)(F)F)C(=O)c2ccccc21` [compound 35], the IC50 is 35 nM in assay [4] (setting [9]), 14 µM in assay [6] and 32 nM in assay [2] (setting [10]).

Regarding `COc1ccc2c(=O)cc(C)[nH]c2c1` [compound 43], the IC50 was 13700 nM in assay [4] (setting [13]), greater than 25 µM in assay [5] (setting [11]) and 7000 nM in assay [2] (setting [12]).

For `C=CC1CN2CCC1CC2C(O)c1ccnc2ccc(OC)cc12` (stereo not shown) [compound 37], the IC50 in assay [4] (setting [9]) stood at 68 nM; in assay [6] it was 23 µM; in assay [2] (setting [10]) it was 11 nM.

`COc1ccc2c(=O)c3ccc(Cl)cc3[nH]c2c1` [compound 13]: the values for the IC50 in assay [4] (setting [9]), in assay [6] and in assay [2] (setting [10]) were 192 nM, greater than 25 µM and 76 nM, respectively.

Turning to `O=c1c2ccc(O)cc2[nH]c2cc(Cl)ccc12` [compound 14], the values for the IC50 in assay [4] (setting [9]), in assay [6] and in assay [2] (setting [10]) were 9200 nM, 14 µM and 2200 nM, respectively.

As to `COc1ccc2nc3cc(Cl)ccc3c(N)c2c1` [compound 9], the IC50 in assay [4] (setting [9]) amounted to 42 nM; in assay [6], 0.45 µM; in assay [2] (setting [10]), 18 nM.

`Cn1c2cc(Cl)ccc2c(=O)c2ccc(OCCCCC(F)(F)F)cc21` [compound 31]: the IC50 was 3500 nM in assay [4] (setting [9]), greater than 25 µM in assay [6] and 4000 nM in assay [2] (setting [10]).

As to `O=c1c2ccc(Cl)cc2[nH]c2ccc(OCCCCCBr)cc12` [compound 10], the 50% inhibitory concentration (IC50) in assay [4] (setting [9]) amounted to 152 nM; in assay [6] it was 12 µM; in assay [2] (setting [10]), 70 nM.

As for `O=c1c2ccc(Cl)cc2[nH]c2cc(OCCCCCCl)ccc12` [compound 16], the IC50 in assay [4] (setting [9]) was 13 nM; in assay [6], greater than 25 µM; in assay [2] (setting [10]) it was 12 nM.

Turning to `COc1ccc2c(=O)cc[nH]c2c1` [compound 40], the values for the IC50 in assay [5] (setting [11]) and in assay [2] (setting [12]) were greater than 25 µM and greater than 2500 nM, respectively.

For the compound `O=C1c2ccc(OCCCCCC(F)(F)F)cc2C(=O)c2ccc(O)cc21` [compound 15], the IC50 is 54 nM in assay [4] (setting [9]), greater than 25 µM in assay [6] and 27 nM in assay [2] (setting [10]).

As to `COc1ccc2c(=O)c(CCCCCCCCCCC(F)(F)F)c(C)[nH]c2c1` [compound 45], the IC50 was 0.36 nM in assay [4] (Table 3), greater than 25 µM in assay [5] and 0.2 nM in assay [2] (setting [8]).

In the case of `O=C1C=C(OCCCCC(F)(C(F)(F)F)C(F)(F)F)C(=O)c2ccccc21` [NAP 005, 2-(5,6,6,6-tetrafluoro-5-trifluoromethyl-hexyloxy)-[1,4]naphthoquinone], the “inhibition of oxygen consumption (respiration)” value in assay [3] is “does not inhibit oxygen consumption”. The “IC50 values, stated in words” value in assay [1] was “low nanomolar range”.

As for `O=c1c2ccc(Cl)cc2[nH]c2cc(OCCCCC(F)(F)C(F)(F)F)ccc12` [compound 23], the IC50 in assay [4] (setting [9]) was 0.02 nM; in assay [6], greater than 25 µM; in assay [2] (setting [10]), 0.02 nM.

For the compound `COc1ccc2c(=O)c(CCCCCC(F)(F)F)c(C)[nH]c2c1` [compound 44], the 50% inhibitory concentration (IC50) in assay [4] (setting [13]) was 12.8 nM; in assay [5] (setting [11]), greater than 25 µM; in assay [2] (setting [12]) it was 10.2 nM.

For the compound `O=c1c2ccc(Cl)cc2[nH]c2cc(OCCCCC(F)(F)F)ccc12` [compound 18], the IC50 in assay [4] (setting [9]) was 0.5 nM; in assay [6], greater than 25 µM; in assay [2] (setting [10]) it was 0.3 nM.
